As usually defined, the IC50 is the point on the concentration scale where inhibition reaches its midpoint. The low end stands for higher potency, the high end for lower potency.

A value given as a limit tells only on which side of the number the result lay.

Chain of human IDO1 (P14902 whole entry): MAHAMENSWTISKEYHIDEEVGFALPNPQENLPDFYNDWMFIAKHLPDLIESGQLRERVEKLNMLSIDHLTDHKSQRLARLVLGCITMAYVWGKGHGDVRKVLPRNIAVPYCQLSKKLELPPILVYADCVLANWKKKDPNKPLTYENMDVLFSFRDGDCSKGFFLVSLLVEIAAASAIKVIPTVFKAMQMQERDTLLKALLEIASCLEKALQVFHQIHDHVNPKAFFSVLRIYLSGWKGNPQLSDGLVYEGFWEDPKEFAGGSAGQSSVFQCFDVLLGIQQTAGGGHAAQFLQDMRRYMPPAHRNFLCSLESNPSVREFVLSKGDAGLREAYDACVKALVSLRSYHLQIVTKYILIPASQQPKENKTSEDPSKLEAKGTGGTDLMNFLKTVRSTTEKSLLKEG

The assay addresses human IDO1 (Homo sapiens, UniProt P14902). The experiment in a line: Assessment of human IDO-1 inhibitory activity in Hela cells (Interferon-gamma stimulated HeLa cells, Ehrlich reagent, absorbance 490 nm). In kind it is cell-based. More on the design: endogenous in cells; host or cells: HeLa cells stimulated with interferon-gamma. The conditions noted are these: Hela Human IDO-1 cellular assay. Here is the method:
Exemplary compounds were tested for inhibition of IDO activity.
Assessment of Human IDO-1 Inhibitory Activity in Hela Cells
HeLa cells were seeded at 20,000 cells per 30 μL per well with RPMI/phenol red free media containing 10% FBS in a 384-well tissue culture plate (black with clear bottoms). 50 nL of compound was added to cells and incubated at 37° C. for one hour. 20 μL of the recombinant human Interferon-gamma (R&D System, Cat. #285-IF, at final concentration of 10 ng/ml) or recombinant murine Interferon-gamma (PEPROTECH® Inc., Cat. #315-05, final concentration of 5 ng/ml) was added to activate IDO signaling. The cells were incubated for 18 hours in 37° C. incubator with 5% CO2.
Compound treatment was stopped by adding 5 μl trichloroacetic acid to a final concentration of 3%. Subsequently, the cell plate was further incubated at 50° C. for 30 minute. An equal volume supernatant (20 μL) and 2% (w/v) Ehrlich reagent (4-dimethylaminobenzaldehyde) in glacial acetic acid were mixed in a new clear bottom 384-well plate. This plate was incubated at room temperature for 30 minutes. Absorbance at 490 nm was measured on Envision plate reader.
Compound IC50 values were calculated using counts from unstimulated (no INF-gamma treatment) wells as 100% inhibition. INF-gamma treatment without compound treatment as 0% inhibition.
`CCOc1ncc(Nc2cc([C@@H](CC)CC(C)(C)O)ccc2N(CC)C2CCOCC2)cn1` (single isomer, unassigned) [Example 1345] had an IC50 of more than 50 nM.

In turn, `CCN(c1ccc(C(CC(=O)O)C2CC2)cc1Nc1ccc(Cl)cc1)C1CCS(=O)(=O)CC1` (single isomer, unassigned) [Example 339 Enantiomer 1, 3-(3-((4-Chlorophenyl)amino)-4-((1,1-dioxidotetrahydro-2H-thiopyran-4-yl)(ethyl)amino)phenyl)-3-cyclopropylpropanoic acid] returned an IC50 of less than 5 nM.

The molecule `CCC(CC(=O)O)c1cnc(N(CC)C2CCOCC2)c(NC(=O)Nc2ccc(C)cc2)c1` (racemic) [Example 1377, (+/−)-3-(6-(Ethyl(tetrahydro-2H-pyran-4-yl)amino)-5-(3-(p-tolyl)ureido)pyridin-3-yl)pentanoic acid] showed an IC50 of less than 50 nM.

Regarding `COCCN(c1ccc(C(C)(C)CC(=O)O)cc1NC(=O)Nc1ccc(Cl)cc1F)C1CCOCC1` [Example 20, 3-(3-(3-(4-chloro-2-fluorophenyl)ureido)-4-((2-methoxyethyl)(tetrahydro-2H-pyran-4-yl)amino)phenyl)-3-methylbutanoic acid], the IC50 is less than 50 nM.

On to `CCCN(c1ccc([C@@H](CC)CC(=O)O)cc1Nc1ccc(OC)nc1)C1CCOCC1` (single isomer, unassigned) [Example 542], for which the IC50 is less than 5 nM.

The molecule `CCc1ccc(Nc2cc(C(COC)CC(=O)O)cc(F)c2N(CC(C)C)CC(C)C)cc1` (single isomer, unassigned) [Example 922, 3-(4-(diisobutylamino)-3-((4-ethylphenyl)amino)-5-fluorophenyl)-4-methoxybutanoic acid] returned an IC50 of less than 50 nM.

The molecule `CCC(CC(=O)O)c1ccc(N2CCOCC2)c(Nc2ccc(C#N)cc2)c1` (single isomer, unassigned) [Example 6 Enantiomer 1, 3-(3-((4-Cyanophenyl)amino)-4-morpholinophenyl)pentanoic acid] registered an IC50 of more than 50 nM.

In the case of `COCC(CC(=O)O)c1ccc(N(C)C2CCOCC2)c(Nc2ccc(C#N)cn2)c1` (single isomer, unassigned) [Example 874, 3-(3-((5-cyanopyridin-2-yl)amino)-4-(methyl (tetrahydro-2H-pyran-4-yl)amino)phenyl)-4-methoxybutanoic acid], the IC50 was less than 5 nM.

In turn, `CCOc1ncc(Nc2cc(C(CC)CC(=O)O)ccc2N2CCC(c3ccccc3)CC2)cn1` (single isomer, unassigned) [Example 47 Enantiomer 2, 3-(3-((2-Ethoxypyrimidin-5-yl)amino)-4-(4-phenylpiperidin-1-yl)phenyl)pentanoic acid] displayed an IC50 of less than 50 nM.

`CCC(CC(=O)O)c1ccc(N(CC)C2CCCOC2)c(Nc2ccc(C#N)cc2)c1` (single isomer, unassigned) [Example 61, 3-(3-((4-cyanophenyl)amino)-4-(ethyl(tetrahydro-2H-pyran-3-yl)amino)phenyl)pentanoic acid]: the IC50 was less than 5 nM.

Consider `CCC(CC(=O)O)c1cc(F)c(N(CC)C2CCOCC2)c(Nc2cnc(OC)nc2)c1` (single isomer, unassigned) [Example 135, 3-(4-(ethyl(tetrahydro-2H-pyran-4-yl)amino)-3-fluoro-5-((2-methoxypyrimidin-5-yl)amino)phenyl) pentanoic acid], for which the IC50 was less than 50 nM.

In the case of `CCN(c1ccc([C@H](CC(=O)O)C(F)(F)F)cc1NC(=O)Nc1ccc(C)cc1)C1CCOCC1` (single isomer, unassigned) [Example 1269], the IC50 was less than 50 nM.

Turning to `CCN(c1ccc(C(C)CC(=O)O)cc1Nc1cnc(OC(C)C)nc1)C1CCOCC1` (single isomer, unassigned) [Example 622, 3-(4-(ethyl(tetrahydro-2H-pyran-4-yl)amino)-3-((2-isopropoxypyrimidin-5-yl)amino)phenyl)butanoic acid], the half-inhibitory concentration (IC50) is more than 50 nM.

`CCC1COCCN1c1ccc([C@@H](COC)CC(=O)O)cc1Nc1ccc(Cl)cc1` (single isomer, unassigned) [Example 1286]: the IC50 is more than 50 nM.

`CCCN(c1ccc(C(C)(C)CC(=O)O)cc1Nc1ccc(C#N)cc1)C1CCOCC1` [Example 22, 3-(3-((4-cyanophenyl)amino)-4-(propyl(tetrahydro-2H-pyran-4-yl)amino)phenyl)-3-methylbutanoic acid] came in with an IC50 of less than 5 nM.

Regarding `CCC(CC(=O)O)c1cc(Nc2ccc(C#N)cn2)c(N(CC)C2CCOCC2)cc1F` (single isomer, unassigned) [Example 857, 3-(5-((5-cyanopyridin-2-yl)amino)-4-(ethyl(tetra-hydro-2H-pyran-4-yl)amino)-2-fluorophenyl) pentanoic acid], the IC50 is less than 50 nM.

With `CCCN(c1ccc([C@H](CC)CC(=O)O)cc1NC(=O)Nc1ccc(C#N)cc1)C1CCOCC1` (single isomer, unassigned) [Example 556], the IC50 was less than 50 nM.

Take `CCOc1ncc(Nc2cc([C@H](CC)Cc3cnco3)ccc2N(CC)C2CCOCC2)cn1` [Example 1335, (R)-N2-(2-Ethoxypyrimidin-5-yl)-N1-ethyl-4-(1-(oxazol-5-yl)butan-2-yl)-N1-(tetrahydro-2H-pyran-4-yl)benzene-1,2-diamine]: the IC50 was more than 50 nM.

`COCC(CC(=O)O)c1ccc(N2CCOC(C)(C)C2)c(Nc2ccc(Cl)cc2)c1` (single isomer, unassigned) [Example 1315 E1, 3-(3-((4-Chlorophenyl)amino)-4-(2,2-dimethylmorpholino)phenyl)-4-methoxybutanoic acid] returned an IC50 of more than 50 nM.

`CCC(CC(=O)O)c1cc(F)c(N(CC)C2CCOCC2)c(Nc2cnc(OC)nc2)c1` (single isomer, unassigned) [Example 140, 3-(4-(ethyl(tetrahydro-2H-pyran-4-yl)amino)-3-fluoro-5-((2-methoxypyrimidin-5-yl)amino)phenyl) pentanoic acid] came in with a half-maximal inhibitory concentration (IC50) of less than 5 nM.

`COCCN(c1ccc(C(COC)CC(=O)O)cc1NC(=O)Nc1ccc(Cl)cc1F)C1CCOCC1` (single isomer, unassigned) [Example 262, 3-(3-(3-(4-chloro-2-fluorophenyl)ureido)-4-((2-methoxyethyl)(tetrahydro-2H-pyran-4-yl)amino)phenyl)-4-methoxybutanoic acid] registered an IC50 of more than 50 nM.

With `CC(CC(=O)O)c1ccc(N(CC(C)(C)O)C2CCCCC2)c(Nc2ccc3c(c2)OC(F)(F)O3)c1` (single isomer, unassigned) [Example 49, 3-(4-(cyclohexyl(2-hydroxy-2-methylpropyl)amino)-3-((2,2-difluorobenzo[d][1,3]dioxol-5-yl)amino)phenyl)butanoic acid], the IC50 is less than 50 nM.

With `COCCN(c1ccc(C(COC)CC(=O)O)cc1Nc1ccc(F)cc1)C1CCOCC1` (single isomer, unassigned) [Example 258, 3-(3-((4-fluorophenyl)amino)-4-((2-methoxyethyl)(tetrahydro-2H-pyran-4-yl)amino)phenyl)-4-methoxybutanoic acid], the IC50 was less than 50 nM.

`CCC(CC(=O)O)c1cnc(N(CC)C2CCOCC2)c(Nc2ccc(Cl)cc2)c1` (racemic) [Example 1380] came in with a concentration for half-maximal inhibition (IC50) of less than 5 nM.

Regarding `CCN(c1ccc([C@@H](COC)CC(=O)O)cc1NC(=O)Nc1ccc(F)cc1F)C1CCOCC1` (single isomer, unassigned) [Example 431], the IC50 was more than 50 nM.

`COCC(CC(=O)O)c1ccc(N2CCOC[C@H]2C(C)C)c(Nc2ccc(Cl)cc2)c1` (single isomer, unassigned) [Example 910]: the IC50 is less than 50 nM.

`CCOc1ncc(Nc2cc(C(COC)CC(=O)O)ccc2N2CCC(c3ccccc3)CC2)cn1` (single isomer, unassigned) [Example 1351, 3-(3-((2-ethoxypyrimidin-5-yl)amino)-4-(4-phenylpiperidin-1-yl)phenyl)-4-methoxybutanoic acid] showed an IC50 of less than 50 nM.

`CC[C@H](CC(=O)O)c1ccc(N(CC)C2CCOCC2)c(Nc2cnc(C)nc2)c1` (single isomer, unassigned) [Example 1363] gave an IC50 of less than 5 nM.

Molecule `CCC(CC(=O)O)c1ccc(N(CCOC)C2CCOCC2)c(Nc2ccc(Cl)cc2)c1` (single isomer, unassigned) [Example 1257 E1, 3-(3-((4-Chlorophenyl)amino)-4-((2-methoxyethyl)(tetrahydro-2H-pyran-4-yl)amino)phenyl)pentanoic acid] showed an IC50 of less than 5 nM.

As for `CCCN(c1ccc([C@@H](COC)CC(=O)O)cc1NC(=O)Nc1ccc(Cl)cc1F)C1CCOCC1` (single isomer, unassigned) [Example 566], the IC50 is less than 50 nM.

`COCC(CC(=O)O)c1ccc(N(C)C2CCOCC2)c(Nc2ccc(Cl)cc2)c1` (single isomer, unassigned) [Example 884, 3-(3-((4-chlorophenyl)amino)-4-(methyl(tetrahydro-2H-pyran-4-yl)amino)phenyl)-4-methoxybutanoic acid] yielded an IC50 of less than 5 nM.

`CCC(CC(=O)O)c1cc(F)c(N(CC)C2CCOCC2)c(Nc2ccc(OC)nc2)c1` (single isomer, unassigned) [Example 137, 3-(4-(ethyl(tetrahydro-2H-pyran-4-yl)amino)-3-fluoro-5-((6-methoxypyridin-3-yl)amino)phenyl) pentanoic acid] came in with an IC50 of less than 50 nM.
